Consider one compound from patent US20260373226A1, “METHODS AND COMPOSITIONS FOR THE TREATMENT OF NEURODEGENERATIVE DISEASE” (Stealth BioTherapeutics Inc., priority 2022, published 2026).

Series [1] can be described thus: Time-concentration profile in plasma, CSF and brain, rat versus nonhuman primate. Format: in vivo. Conditions: FIGS. 4A and 4C; equivalent dose levels, single or repeated SC dosing. The method, then: Pharmacokinetic profile of SBT-272 in rat plasma, CSF, and brain (for FIG. 4A). Briefly, as described elsewhere herein, male Sprague-Dawley (SD) rats were subcutaneously administered a single, 10 mg/kg dose of SBT-272. Plasma, CSF, and brain (microdialysis) samples were obtained at the time points indicated on FIG. 4A and analyzed for SBT-272 concentration by HPLC with tandem mass spectrometry (HPLC-MS/MS).
Pharmacokinetic profile of SBT-272 in nonhuman primate plasma, CSF, and brain. The objective of this study was to determine the pharmacokinetic profile of SBT-272 in CSF and plasma when delivered by subcutaneous (SC) injection for 10 days to cynomolgus monkeys. SBT-272 solution was administered daily by SC injection for 10 days. The following parameters and endpoints were evaluated in this study: mortality, clinical observations, body weights, pharmacokinetic samples (CSF and plasma), and selected tissue collection. There was no mortality during the study. […] Additional details regarding the experimental protocol are provided below.

Series [2] is described as follows: Steady state PK in plasma, CSF, brain after 5 daily s.c. doses in rats. Conditions: rat, 10 mg/kg s.c., 5 daily doses. Format: in vivo, male Sprague-Dawley rat. On the procedure:
Pharmacokinetic profile of SBT-272 in rat plasma, CSF, and brain (for FIG. 5A). The objective of this study was to evaluate the pharmacokinetics of SBT-272 in microdialysate from the prefrontal cortex (PFC) and striatum (STR), and in plasma and CSF of freely-moving adult male Sprague-Dawley rats. The experiments and the analysis were performed at Charles River Laboratories Den Bosch B.V., location Groningen (Groningen, the Netherlands).
Test items. Test compound was SBT-272. The molecular weight of SBT-272 is 607.75 g/mol in the salt-free form, and 717.13 g/mol in the salt form.
In vivo experiments: Animals. A total of six male Sprague-Dawley rats (309-329 g; CRL Sulzfeld, Germany) were used for the experiments. The experiments were conducted in strict accordance with the Guide for the Care and Use of Laboratory Animals (National Research Council 2011) and were in accordance with European Union directive 2010/63 and the Dutch law. The experiments were carried out under license number AVD23600202011187, issued by the national committee for licensing of animal experiments (Centrale Commissie Dierproeven) and were approved by the Animal Care and Use Committee (Instantie voor Dierenwelzijn) of Charles River Discovery Groningen.
Following arrival, animals were housed in groups of 5 in polycarbonate cages (56 X 33×20 cm) with wire mesh top in a temperature (22±2 °C) and humidity (55±15%) controlled environment on a 12 hour light cycle (07.00-19.00 h). After surgery, animals were housed individually (cages 30×30×40 cm). Standard diet (A04 mod. R/M-M, Ssniff, Germany) and domestic quality mains water were available ad libitum.
In vivo experiments: Surgery. Animals were anesthetized using isoflurane (2% and 800 mL/min 02). Before surgery, carprofen (5 mg/kg, s.c.) was administered for peri- and post-operative analgesia. A mixture of bupivacaine and epinephrine was applied to the incision site and periosteum of the skull for local analgesia.
In vivo experiments: Microdialysis probe implantation. Each animal was placed in a stereotaxic frame (Kopf instruments, USA). […]

Series [3] can be described thus: Phase 1 clinical plasma PK in healthy volunteers. Format: in vivo, human. The text has this: The primary objective of this study is to evaluate the safety and tolerability of single and multiple ascending doses of SBT-272 administered via subcutaneous injection in healthy volunteers. The secondary objects of this study are to: (a) evaluate the plasma PK of SBT-272 in healthy volunteers following subcutaneous administration of single and multiple ascending doses; and (b) to determine an appropriate dose range for subsequence clinical evaluation.

The structures appear in SMILES notation.

Turning to `Cc1cc(O)cc(C)c1C[C@H](NC(=O)[C@H](N)CCCNC(=N)N)C(=O)N[C@@H](CCCCN)c1nc(Cc2ccccc2)no1` [SBT-272, (R)-2-amino-N—((S)-1-(((S)-5-amino-1-(3-benzyl-1,2,4-oxadiazol-5-yl)pentyl)amino)-3-(4-hydroxy-2,6-dimethylphenyl)-1-oxopropan-2-yl)-5-guanidinopentanamide], in series [1], the “time-concentration profile in plasma, CSF, and brain, rat versus nonhuman primate” value is “very similar in rat and nonhuman primate”. The Kp in series [2] (brain, sc, read-out: brain:plasma ratio) turned out to be 178. In series [2], the “brain:CSF ratio” value was 182 and the “plasma:CSF ratio” value worked out at 1.03. In addition, the “clinical PK versus expectations based on rat and nonhuman primate profiles” value in series [3] (Phase 1, healthy volunteers, SC) is “consistent with expectations based on rat and nonhuman primate profiles”. Besides, the “clinical PK profile versus non-clinical allometric scaling predictions” value in series [3] (healthy subjects, FIG. 7, 40 mg once daily, interim) is given as “consistent with non-clinical allometric scaling predictions”.
